Results taken from US10952433B2, “Solutions for enhancing the effectiveness of insecticides and fungicides on living plants and related methods” (priority 2015, dated 2021).
Read-outs that look alike come from different tables or passages of the source.

Legend:
[1] = system: lepidopteran larvae: cabbage loopers (Trichoplusia ni) and beet armyworms (Spodoptera exigua); assay type: in vivo; settings: plants
Method: In a first group of tests, the results of which are shown in Table 7 (pages 22-24), romaine lettuce plants two to three inches in height were exposed to 10 milliliters of solution applied to each plant using a low volume trigger spray. With respect to containers 0-7, ten plants were employed per container, nine were treated and one was an internal control. In containers M-H, ten plants per container were used, five were treated and 5 were internal controls. Each container was infested with 30 lepidopteran larvae between the 5th and 6th instar development. Fifteen cabbage loopers (Trichoplusia ni) and 15 beet armyworms (Spodoptera exigua) were used to infest the romaine lettuce plants. Visual evaluations for the average percentage total surface area damage were taken 24 hours after infestation. Percentage damage was evaluated by 5% increments for total damage across all plant leaves.
As indicated in the first column of Table 7, in some tests, no insecticide was employed and there were two controls; a no water control and a no dye control. A wide variety of insecticides selected from the following group were tested: Chlorantranilopril, Acephate, Methoxyfenozide, Spinosad, Permethrin, and Indoxacarb. The product concentration is shown in PPM in column 2. Column 3 is divided into two subunits, the first being CO3 and the second, PO4. In all instances in columns 3, 4 and 5 and their sub-columns, the concentrations used were 200:1. The fourth column employed amine oxide, but no buffer. […] Two sub-columns each are represented for CO3 and PO4. The final column is a reading of the Percent Lepidopteran Damage to the romaine lettuce plants after 24 hours.
In addition to testing the buffered amine system of the present invention with the two amine oxides identified as CO3 and PO4 and their use with 12 carbon length and a mixture of 12 and 18 designated 1218 for comparative data purposes various differences were created in the testing. Some of the tests were performed with (a) no insecticide along with (b) no amine oxide for CO3 and PO4 and (c) with no buffer, but with amine oxide. Also, tests were run using no insecticide and no water control with no foliar application being made. Tests with no insecticide and no dye control employed foliar application of water only. The tests were conducted with all of the testing on the buffer alone, the amine oxide alone and the buffered amine oxide system of the present invention in the concentration of 200:1.

[2] = system: lepidopteran larvae: cabbage loopers (Trichoplusia ni) and beet armyworms (Spodoptera exigua); assay type: in vivo; settings: leaf discs
Text: A second series of tests involved romaine lettuce discs approximately ⅝ inch in diameter. (L. sativa). They were dipped in the treatment solution one second per disc. This test involved the 5/5 configuration, i.e., 5 treated and 5 untreated. The infestation involved […] lepidopteran larvae at the 3rd to 4th instar development per container: four cabbage loopers (Trichoplusia ni), and four beet armyworms (Spodoptera exigua) were employed. The test containers were placed in a dark humidity cabinet at 15° C. and 80% relative humidity. Visual evaluations of the average percent damage were taken at 24, 48 and 72 hours after the initiation of infestation. Damage was evaluated in 5% increments based on total disc area.
In the tests reported in Table 8 pages 29-32), romaine lettuce leaf discs ⅝″ in diameter (L. sativa) were dipped in the treatment solution for about one second per disc. Infestation was provided by eight lepidopteran larvae at the 3rd to 4th instar development per container. Four cabbage loopers (Trichoplusia ni) and four beet armyworms (Spodoptera exigua) were employed in infestation. The containers were placed in a dark humidity cabinet at 15° C. and 80% relative humidity. Visual observations of the average percent damage was taken at 24, 48 and 72 hours after infestation. Damage evaluation was by 5% increments over the total disc area.
In the tests results provided in Table 8, the identity and concentrations of the insecticide was identical to the tests results reported in Table 7. The concentration of 200:1 was employed for the no amino oxide, no buffer and buffered amine oxide system. This series of tests, however, reported how the percent damage changed with time at the respective 24, 48 and 72 hour intervals.

[3] = insecticide + CO3 buffer 200:1, no amine oxide, PPM: Chlorantranilopril 60, Acephate 70, Methoxyfenozide 100, Spinosad 30, Permethrin 10, Indoxacarb 50
[4] = insecticide + PO4 buffer 200:1, no amine oxide, PPM: Chlorantranilopril 60, Acephate 70, Methoxyfenozide 100, Spinosad 30, Permethrin 10, Indoxacarb 50
[5] = insecticide + amine oxide 12, no buffer, 200:1, PPM: Chlorantranilopril 60, Acephate 70, Methoxyfenozide 100, Spinosad 30, Permethrin 10, Indoxacarb 50
[6] = insecticide + amine oxide 1218, no buffer, 200:1, PPM: Chlorantranilopril 60, Acephate 70, Methoxyfenozide 100, Spinosad 30, Permethrin 10, Indoxacarb 50
[7] = insecticide + buffered amine oxide system CO3, 12, 200:1, PPM: Chlorantranilopril 60, Acephate 70, Methoxyfenozide 100, Spinosad 30, Permethrin 10, Indoxacarb 50
[8] = insecticide + buffered amine oxide system CO3, 1218, 200:1, PPM: Chlorantranilopril 60, Acephate 70, Methoxyfenozide 100, Spinosad 30, Permethrin 10, Indoxacarb 50
[9] = insecticide + buffered amine oxide system PO4, 12, 200:1, PPM: Chlorantranilopril 60, Acephate 70, Methoxyfenozide 100, Spinosad 30, Permethrin 10, Indoxacarb 50
[10] = insecticide + buffered amine oxide system PO4, 1218, 200:1, PPM: Chlorantranilopril 60, Acephate 70, Methoxyfenozide 100, Spinosad 30, Permethrin 10, Indoxacarb 50
[11] = insecticide alone, highest, PPM: Chlorantranilopril 120, Acephate 140, Methoxyfenozide 200, Spinosad 60, Permethrin 20, Indoxacarb 100
[12] = insecticide alone, increased, PPM: Chlorantranilopril 90, Acephate 105, Methoxyfenozide 150, Spinosad 45, Permethrin 15, Indoxacarb 75
[13] = insecticide alone, PPM: Chlorantranilopril 60, Acephate 70, Methoxyfenozide 100, Spinosad 30, Permethrin 10, Indoxacarb 50

SMILES: COC(=O)N(C(=O)N1CO[C@@]2(C(=O)OC)Cc3cc(Cl)ccc3C2=N1)c1ccc(OC(F)(F)F)cc1 [Indoxacarb]
- Percent Lepidopteran Damage to Romaine Lettuce 24 hr [1, 3]: 50.5%
- Percent Lepidopteran Damage to Romaine Lettuce 24 hr [1, 4]: 25.5%
- Percent Lepidopteran Damage to Romaine Lettuce 24 hr [1, 5]: 26.5%
- Percent Lepidopteran Damage to Romaine Lettuce 24 hr [1, 6]: 25.5%
- Percent Lepidopteran Damage to Romaine Lettuce 24 hr [1, 7]: 7.0%
- Percent Lepidopteran Damage to Romaine Lettuce 24 hr [1, 8]: 7.0%
- Percent Lepidopteran Damage to Romaine Lettuce 24 hr [1, 9]: 7.5%
- Percent Lepidopteran Damage to Romaine Lettuce 24 hr [1, 10]: 8.0%
- Percent Lepidopteran Damage to Romaine Lettuce 24 hr [1, 11]: 12.0%
- Percent Lepidopteran Damage to Romaine Lettuce 24 hr ([1]; insecticide alone, highest, PPM: Chlorantranilopril 120, Acephate 140, Methoxyfenozide 200, Spinosad 60, Permethrin 20, Indoxacarb 100, listed as lndoxacarb): 12.5%
- Percent Lepidopteran Damage to Romaine Lettuce 24 hr [1, 12]: 20.0%
- Percent Lepidopteran Damage to Romaine Lettuce 24 hr [1, 13]: 47.0%
- Percent Lepidopteran Damage to Romaine Lettuce 24 hr [2, 3]: 21.5%
- Percent Lepidopteran Damage to Romaine Lettuce 24 hr [2, 4]: 22.5%
- Percent Lepidopteran Damage to Romaine Lettuce 24 hr [2, 5]: 45.5%
- Percent Lepidopteran Damage to Romaine Lettuce 24 hr [2, 6]: 44.5%
- Percent Lepidopteran Damage to Romaine Lettuce 24 hr [2, 7]: 33.5%
- Percent Lepidopteran Damage to Romaine Lettuce 24 hr [2, 8]: 26.5%
- Percent Lepidopteran Damage to Romaine Lettuce 24 hr [2, 9]: 61.0%
- Percent Lepidopteran Damage to Romaine Lettuce 24 hr [2, 10]: 19.0%
- Percent Lepidopteran Damage to Romaine Lettuce 24 hr [2, 11]: 25.0%
- Percent Lepidopteran Damage to Romaine Lettuce 24 hr [2, 12]: 32.0%
- Percent Lepidopteran Damage to Romaine Lettuce 24 hr [2, 13]: 19.5%
- Percent Lepidopteran Damage to Romaine Lettuce 48 hr [2, 3]: 29.0%
- Percent Lepidopteran Damage to Romaine Lettuce 48 hr [2, 4]: 25.0%
- Percent Lepidopteran Damage to Romaine Lettuce 48 hr [2, 5]: 55.0%
- Percent Lepidopteran Damage to Romaine Lettuce 48 hr [2, 6]: 68.0%
- Percent Lepidopteran Damage to Romaine Lettuce 48 hr [2, 7]: 46.5%
- Percent Lepidopteran Damage to Romaine Lettuce 48 hr [2, 8]: 50.5%
- Percent Lepidopteran Damage to Romaine Lettuce 48 hr [2, 9]: 63.5%
- Percent Lepidopteran Damage to Romaine Lettuce 48 hr [2, 10]: 34.5%
- Percent Lepidopteran Damage to Romaine Lettuce 48 hr [2, 11]: 35.5%
- Percent Lepidopteran Damage to Romaine Lettuce 48 hr [2, 12]: 38.0%
- Percent Lepidopteran Damage to Romaine Lettuce 48 hr [2, 13]: 68.5%
- Percent Lepidopteran Damage to Romaine Lettuce 72 hr [2, 3]: 37.5%
- Percent Lepidopteran Damage to Romaine Lettuce 72 hr [2, 4]: 32.5%
- Percent Lepidopteran Damage to Romaine Lettuce 72 hr [2, 5]: 61.5%
- Percent Lepidopteran Damage to Romaine Lettuce 72 hr [2, 6]: 71.0%
- Percent Lepidopteran Damage to Romaine Lettuce 72 hr [2, 7]: 57.5%
- Percent Lepidopteran Damage to Romaine Lettuce 72 hr [2, 8]: 57.0%
- Percent Lepidopteran Damage to Romaine Lettuce 72 hr [2, 9]: 71.0%
- Percent Lepidopteran Damage to Romaine Lettuce 72 hr [2, 10]: 34.5%
- Percent Lepidopteran Damage to Romaine Lettuce 72 hr [2, 11]: 39.5%
- Percent Lepidopteran Damage to Romaine Lettuce 72 hr [2, 12]: 72.0%
- Percent Lepidopteran Damage to Romaine Lettuce 72 hr [2, 13]: 88.0%
